Assay: xn = mol fraction of the nth substance listed
Settings: for surface tension liquid-gas: wilhelmi plate; for viscosity / speed of sound / mass density: 100 kPa, Liquid; for viscosity: Capillary tube (Ostwald / Ubbelohde) method; for speed of sound: Frequency=3 MHz, Sing-around technique in a fixed-path interferometer; for mass density: Vibrating tube method

CN(C)CCN [2-dimethylamino-1-ethylamine] + O
Settings	mass density [kg/m3]	speed of sound [m/s]	surface tension liquid-gas [mN/m]	viscosity [mPa·s]
293.15 K, x1 = 0.1002	975	1773.4	42.6	6.83
293.15 K, x1 = 0.2	952	1708.6	37.1	12.66
293.15 K, x1 = 0.3002	920	1605.4	32.9	10.5
293.15 K, x1 = 0.3996	895	1517.2	30.6	6.463
293.15 K, x1 = 0.5035	874	1456.6	29.4	3.875
293.15 K, x1 = 0.5995	858	1419.2	28.6	2.743
293.15 K, x1 = 0.7007	844	1387.2	27.9	1.965
293.15 K, x1 = 0.8002	833	1349.8	27.4	1.464
293.15 K, x1 = 0.8999	825	1328	26.9	1.162
293.15 K, x1 = 1	819	1319.6	26.4	0.988
303.15 K, x1 = 0.1002	970	1743.6	41.9	4.28
303.15 K, x1 = 0.2	943	1672.8	36.3	7.355
303.15 K, x1 = 0.3002	912	1568.6	32.2	6.268
303.15 K, x1 = 0.3996	886	1480.2	29.8	4.148
303.15 K, x1 = 0.5035	865	1419.2	28.6	2.709
303.15 K, x1 = 0.5995	849	1381.6	27.8	2.013
303.15 K, x1 = 0.7007	835	1349	27.1	1.51
303.15 K, x1 = 0.8002	824	1305.2	26.6	1.161
303.15 K, x1 = 0.8999	816	1288.7	26.1	0.94
303.15 K, x1 = 1	810	1279.3	25.8	0.819
313.15 K, x1 = 0.1002	963	1712.8	41.3	2.891
313.15 K, x1 = 0.2	935	1636.1	35.2	4.689
313.15 K, x1 = 0.3002	901	1531.3	31.2	4.105
313.15 K, x1 = 0.3996	877	1443.1	28.9	2.884
313.15 K, x1 = 0.5035	856	1381.8	27.8	2.019
313.15 K, x1 = 0.5995	840	1343.3	27	1.552
313.15 K, x1 = 0.7007	826	1310.3	26.3	1.192
313.15 K, x1 = 0.8002	814	1266.2	25.8	0.937
313.15 K, x1 = 0.8999	806	1249.2	25.3	0.773
313.15 K, x1 = 1	801	1239	25.2	0.693
323.15 K, x1 = 0.1002	955	1682	40.4	2.069
323.15 K, x1 = 0.2	926	1598.4	34.3	3.179
323.15 K, x1 = 0.3002	893	1493.1	30.6	2.853
323.15 K, x1 = 0.3996	868	1411.3	27.9	2.105
323.15 K, x1 = 0.5035	847	1343.5	27.1	1.519
323.15 K, x1 = 0.5995	831	1305.1	26.4	1.201
323.15 K, x1 = 0.7007	817	1271.7	25.7	0.967
323.15 K, x1 = 0.8002	806	1227	25.2	0.804
323.15 K, x1 = 0.8999	797	1209.1	24.7	0.686
323.15 K, x1 = 1	791	1199.3	24.5	0.596

From the NIST ThermoML archive (doi:10.1021/acs.jced.5b00447)
